Assay results taken from article PMC9596378, “Discovery and molecular basis of subtype-selective cyclophilin inhibitors” (Nature Chemical Biology, 2022).

Columns and labels:
Experiment in all cases: Anisotropy (fluorescence polarization) binding assay
Cyp40 = Cyp40 (Homo sapiens, UniProt Q08752); set-up: PPID (UniProtKB Entry Q08752: residues 1–183); made in house; host or cells: E. coli BL21(DE3); details: 0.5 nM fluorescein-labeled macrocycle
Procedure: (§1) Final assay volume was 100 µL with 0.25% DMSO. Fluorescence anisotropy was then measured using a Tecan Spark plate reader using 492 nm/523 nm excitation/emission settings.

CypD = CypD (Homo sapiens, UniProt P30405); set-up: PPIF (UniProtKB Entry P30405: residues 45–207); made in house; host or cells: E. coli BL21(DE3); details: 0.5 nM fluorescein-labeled macrocycle
Procedure: as §1

PPIL4(Full Length) = molecular target: T1, PPIL4(Full Length) (Homo sapiens, UniProt Q8WUA2); details: 0.5 nM fluorescein-labeled macrocycle
T1 construct: PPIL4 (full length); purchased Millipore-Sigma
Procedure: as §1

CypE K218A = molecular target: T2, CypE K218A (Homo sapiens, UniProt Q9UNP9, K218A); details: 0.5 nM A26-Fl
T2 construct: Lane 6- GS-CypE K218A (131-301);; His6 tag with thrombin site (pET28a LIC); GS remnant stays on the N-terminus (N, cleaved yes); host or cells: E. coli BL21(DE3)
Procedure: as §1

PPWD1 = molecular target: T3, PPWD1 (Homo sapiens, UniProt Q96BP3); details: 0.5 nM fluorescein-labeled macrocycle
T3 construct: PPWD1 (UniProtKB Entry Q96BP3: residues 473–646); host or cells: E. coli BL21(DE3)
T3 sequence (Q96BP3 473-646): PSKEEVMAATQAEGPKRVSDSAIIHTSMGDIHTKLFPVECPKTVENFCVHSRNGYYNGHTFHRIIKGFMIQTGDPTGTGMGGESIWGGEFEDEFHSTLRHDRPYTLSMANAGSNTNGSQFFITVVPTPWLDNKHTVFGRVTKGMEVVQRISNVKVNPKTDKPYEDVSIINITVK
Procedure: as §1

CypB = molecular target: T4, CypB (Homo sapiens, UniProt P23284); details: 0.5 nM fluorescein-labeled macrocycle
T4 construct: PPIB (UniProtKB Entry P23284: residues 34–216); His6 with TEV site (2BT vector leader) (N); made in house; host or cells: E. coli BL21(DE3)
Procedure: as §1

CypA = molecular target: T5, CypA (Homo sapiens, UniProt P62937); details: 0.5 nM fluorescein-labeled macrocycle
T5 construct: PPIA (UniProtKB Entry P62937: residues 1–165); made in house; host or cells: E. coli BL21(DE3)
Procedure: as §1

CypE K212A = molecular target: T6, CypE K212A (Homo sapiens, UniProt Q9UNP9, K212A); details: 0.5 nM A26-Fl
T6 construct: Lane 4- GS-CypE K212A (131-301);; His6 tag with thrombin site (pET28a LIC); GS remnant stays on the N-terminus (N, cleaved yes); host or cells: E. coli BL21(DE3)
Procedure: as §1

PPIL3 = molecular target: T7, PPIL3 (Homo sapiens, UniProt Q9H2H8); details: 0.5 nM fluorescein-labeled macrocycle
T7 construct: PPIL3 (UniProtKB Entry Q9H2H8: residues 1–161); His6 tag with TEV site (2BT vector); SNA remnant stays on the N-terminus (N, cleaved yes); made in house; host or cells: E. coli BL21(DE3)
Procedure: as §1

CypC = molecular target: T8, CypC (Homo sapiens, UniProt P45877); details: 0.5 nM fluorescein-labeled macrocycle
T8 construct: PPIC (UniProtKB Entry P45877: residues 24–212); host or cells: E. coli BL21(DE3)
Procedure: as §1

PPIL6(C-Myc/DDK) = molecular target: T9, PPIL6(C-Myc/DDK) (Homo sapiens, UniProt Q8IXY8); details: 0.5 nM fluorescein-labeled macrocycle
T9 construct: Myc; DDK (FLAG); purchased Millipore-Sigma
Procedure: as §1

CypH = molecular target: T10, CypH (Homo sapiens, UniProt O43447); details: 0.5 nM fluorescein-labeled macrocycle
T10 construct: PPIH (UniProtKB Entry O43447: residues 1–177); His6 with TEV site (2BT vector leader) (N); made in house; host or cells: E. coli BL21(DE3)
Procedure: as §1

NKTR = molecular target: T11, NKTR (Homo sapiens, UniProt P30414); details: 0.5 nM fluorescein-labeled macrocycle
T11 construct: NKTR (UniProtKB Entry P30414: residues 7–179); host or cells: E. coli BL21(DE3)
T11 sequence (P30414 7-179): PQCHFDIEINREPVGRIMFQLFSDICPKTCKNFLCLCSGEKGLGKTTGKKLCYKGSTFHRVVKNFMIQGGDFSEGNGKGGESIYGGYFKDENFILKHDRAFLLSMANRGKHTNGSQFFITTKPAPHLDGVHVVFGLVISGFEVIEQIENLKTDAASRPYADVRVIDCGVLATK
Procedure: as §1

CypE = molecular target: T12, CypE (Homo sapiens, UniProt Q9UNP9); details: 0.5 nM fluorescein-labeled macrocycle
T12 construct: PPIE (UniProtKB Entry Q9UNP9: residues 131–301); host or cells: E. coli BL21(DE3)
Procedure: as §1

CypE K217A = molecular target: T13, CypE K217A (Homo sapiens, UniProt Q9UNP9, K217A); details: 0.5 nM A26-Fl
T13 construct: Lane 5- GS-CypE K217A (131-301);; His6 tag with thrombin site (pET28a LIC); GS remnant stays on the N-terminus (N, cleaved yes); host or cells: E. coli BL21(DE3)
Procedure: as §1

PPIL1 = molecular target: T14, PPIL1 (Homo sapiens, UniProt Q9Y3C6); details: 0.5 nM fluorescein-labeled macrocycle
T14 construct: PPIL1 (UniProtKB Entry Q9Y3C6: residues 1–166); made in house; host or cells: E. coli BL21(DE3)
T14 sequence (Q9Y3C6 1-166): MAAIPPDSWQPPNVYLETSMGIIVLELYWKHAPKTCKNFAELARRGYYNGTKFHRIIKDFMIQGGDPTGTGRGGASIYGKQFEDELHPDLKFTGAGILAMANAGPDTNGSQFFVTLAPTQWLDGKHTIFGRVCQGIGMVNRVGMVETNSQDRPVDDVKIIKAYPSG
Procedure: as §1

CypG = molecular target: T15, CypG (Homo sapiens, UniProt Q13427); details: 0.5 nM fluorescein-labeled macrocycle
T15 construct: PPIG (UniProtKB Entry Q13427: residues 1–179); His6 with thrombin site (pET28a LIC leader) (N); host or cells: E. coli BL21(DE3)
T15 sequence (Q13427 1-179): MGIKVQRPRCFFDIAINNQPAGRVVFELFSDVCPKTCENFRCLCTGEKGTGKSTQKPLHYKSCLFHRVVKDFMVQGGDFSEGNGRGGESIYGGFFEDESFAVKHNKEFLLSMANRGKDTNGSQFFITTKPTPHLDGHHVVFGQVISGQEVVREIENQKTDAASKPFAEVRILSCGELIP
Procedure: as §1

SDCCAG-10(GST) = molecular target: T16, SDCCAG-10(GST) (Homo sapiens, UniProt Q6UX04); details: 0.5 nM fluorescein-labeled macrocycle
T16 construct: GST; purchased Abnova
Procedure: as §1

PPIL2 = molecular target: T17, PPIL2 (Homo sapiens, UniProt Q13356); details: 0.5 nM fluorescein-labeled macrocycle
T17 construct: PPIL2 (UniProtKB Entry Q13356: residues 280–457); His6 tag with thrombin site (pET28a LIC); GS remnant after cleavage (N, cleaved yes); host or cells: E. coli BL21(DE3)
Procedure: as §1

Sequence of Cyp40 (Q08752 1-183): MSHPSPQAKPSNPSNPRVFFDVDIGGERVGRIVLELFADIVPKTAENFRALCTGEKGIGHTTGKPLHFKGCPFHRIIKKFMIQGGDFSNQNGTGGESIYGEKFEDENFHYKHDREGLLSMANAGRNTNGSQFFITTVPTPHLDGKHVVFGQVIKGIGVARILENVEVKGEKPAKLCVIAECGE
T8 sequence (P45877 24-212): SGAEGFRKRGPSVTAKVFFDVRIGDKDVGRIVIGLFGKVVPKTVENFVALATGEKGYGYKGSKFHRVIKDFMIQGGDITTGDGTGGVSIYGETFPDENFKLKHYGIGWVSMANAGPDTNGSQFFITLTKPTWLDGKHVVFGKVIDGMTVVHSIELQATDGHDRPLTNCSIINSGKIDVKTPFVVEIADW
T13 sequence (Q9UNP9 131-301 K217A): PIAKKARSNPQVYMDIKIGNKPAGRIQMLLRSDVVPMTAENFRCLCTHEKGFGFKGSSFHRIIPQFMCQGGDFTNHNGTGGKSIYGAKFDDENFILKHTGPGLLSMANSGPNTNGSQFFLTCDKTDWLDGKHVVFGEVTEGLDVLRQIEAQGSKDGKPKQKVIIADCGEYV
T6 sequence (Q9UNP9 131-301 K212A): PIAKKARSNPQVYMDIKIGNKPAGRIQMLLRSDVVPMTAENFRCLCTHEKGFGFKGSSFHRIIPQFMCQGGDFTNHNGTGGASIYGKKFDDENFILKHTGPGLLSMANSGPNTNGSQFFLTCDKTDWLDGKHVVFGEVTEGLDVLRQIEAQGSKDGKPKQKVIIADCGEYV
T5 sequence (P62937 whole entry, the tested form may be a part): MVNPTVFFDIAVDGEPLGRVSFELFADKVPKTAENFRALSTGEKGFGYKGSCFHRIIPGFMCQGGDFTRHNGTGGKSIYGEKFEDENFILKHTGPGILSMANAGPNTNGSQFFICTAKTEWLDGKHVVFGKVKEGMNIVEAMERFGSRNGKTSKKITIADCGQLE
T16 sequence (Q6UX04 whole entry): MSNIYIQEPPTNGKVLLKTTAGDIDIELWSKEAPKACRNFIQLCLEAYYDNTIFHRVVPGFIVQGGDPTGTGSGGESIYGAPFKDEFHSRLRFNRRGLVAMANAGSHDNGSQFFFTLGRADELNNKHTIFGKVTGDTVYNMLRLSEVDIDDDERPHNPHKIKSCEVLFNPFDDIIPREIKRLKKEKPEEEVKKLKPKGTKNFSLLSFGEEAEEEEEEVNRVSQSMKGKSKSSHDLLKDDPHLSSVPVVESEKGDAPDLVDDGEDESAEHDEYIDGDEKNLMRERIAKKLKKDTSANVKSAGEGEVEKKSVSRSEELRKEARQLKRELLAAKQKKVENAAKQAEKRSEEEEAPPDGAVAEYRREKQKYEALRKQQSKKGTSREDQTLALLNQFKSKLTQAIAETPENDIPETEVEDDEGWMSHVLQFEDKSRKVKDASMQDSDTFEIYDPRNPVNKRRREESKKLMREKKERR
T12 sequence (Q9UNP9 131-301): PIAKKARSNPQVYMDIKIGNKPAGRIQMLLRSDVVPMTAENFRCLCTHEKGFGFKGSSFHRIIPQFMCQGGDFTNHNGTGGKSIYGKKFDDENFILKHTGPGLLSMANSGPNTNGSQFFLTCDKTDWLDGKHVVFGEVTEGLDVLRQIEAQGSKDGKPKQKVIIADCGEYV
T1 sequence (Q8WUA2 whole entry): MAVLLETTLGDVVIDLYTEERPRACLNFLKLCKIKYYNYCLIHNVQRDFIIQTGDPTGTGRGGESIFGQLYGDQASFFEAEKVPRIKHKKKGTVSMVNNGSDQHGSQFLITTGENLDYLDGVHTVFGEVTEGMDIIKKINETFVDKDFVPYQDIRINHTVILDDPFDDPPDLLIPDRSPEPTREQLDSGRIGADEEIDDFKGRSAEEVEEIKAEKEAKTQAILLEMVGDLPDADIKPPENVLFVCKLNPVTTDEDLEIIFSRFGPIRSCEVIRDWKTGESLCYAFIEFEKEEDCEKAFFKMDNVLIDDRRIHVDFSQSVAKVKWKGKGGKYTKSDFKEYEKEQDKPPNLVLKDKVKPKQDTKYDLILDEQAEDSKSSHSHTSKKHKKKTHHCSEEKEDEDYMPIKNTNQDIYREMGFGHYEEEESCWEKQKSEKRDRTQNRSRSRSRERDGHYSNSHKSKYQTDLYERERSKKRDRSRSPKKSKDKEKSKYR
Sequence of CypD (P30405 45-207): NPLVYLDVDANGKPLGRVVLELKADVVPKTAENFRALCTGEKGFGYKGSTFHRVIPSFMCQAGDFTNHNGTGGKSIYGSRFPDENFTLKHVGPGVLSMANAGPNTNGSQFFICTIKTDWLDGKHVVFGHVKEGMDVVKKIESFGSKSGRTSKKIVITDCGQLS
T17 sequence (Q13356 280-457): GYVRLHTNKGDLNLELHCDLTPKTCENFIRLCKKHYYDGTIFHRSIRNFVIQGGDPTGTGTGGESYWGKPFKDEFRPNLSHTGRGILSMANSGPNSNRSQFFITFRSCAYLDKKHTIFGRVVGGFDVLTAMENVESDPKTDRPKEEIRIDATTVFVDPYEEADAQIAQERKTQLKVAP
T9 sequence (Q8IXY8 whole entry): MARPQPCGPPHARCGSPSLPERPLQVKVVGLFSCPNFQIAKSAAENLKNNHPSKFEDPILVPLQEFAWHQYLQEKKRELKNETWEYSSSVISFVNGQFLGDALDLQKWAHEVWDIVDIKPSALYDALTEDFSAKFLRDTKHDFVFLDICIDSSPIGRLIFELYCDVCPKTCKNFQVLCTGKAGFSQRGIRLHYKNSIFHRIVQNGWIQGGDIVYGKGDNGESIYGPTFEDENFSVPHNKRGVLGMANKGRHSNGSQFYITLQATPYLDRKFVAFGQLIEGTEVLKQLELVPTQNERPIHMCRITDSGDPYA
T7 sequence (Q9H2H8 whole entry, the tested form may be a part): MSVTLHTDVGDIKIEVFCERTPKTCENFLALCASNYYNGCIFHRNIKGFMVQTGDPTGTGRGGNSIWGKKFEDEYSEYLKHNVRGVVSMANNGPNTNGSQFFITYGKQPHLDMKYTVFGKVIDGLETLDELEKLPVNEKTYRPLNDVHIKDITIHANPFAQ
T10 sequence (O43447 whole entry, the tested form may be a part): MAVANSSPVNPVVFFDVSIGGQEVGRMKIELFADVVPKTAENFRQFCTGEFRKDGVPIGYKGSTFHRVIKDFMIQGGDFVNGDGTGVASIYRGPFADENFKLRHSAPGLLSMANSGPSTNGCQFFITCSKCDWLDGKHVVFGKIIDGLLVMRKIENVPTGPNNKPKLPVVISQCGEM
T2 sequence (Q9UNP9 131-301 K218A): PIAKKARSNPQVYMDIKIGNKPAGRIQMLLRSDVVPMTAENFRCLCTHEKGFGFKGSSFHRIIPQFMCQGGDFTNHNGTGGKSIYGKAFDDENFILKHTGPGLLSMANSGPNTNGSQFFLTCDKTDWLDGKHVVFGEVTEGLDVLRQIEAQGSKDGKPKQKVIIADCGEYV
T4 sequence (P23284 34-216): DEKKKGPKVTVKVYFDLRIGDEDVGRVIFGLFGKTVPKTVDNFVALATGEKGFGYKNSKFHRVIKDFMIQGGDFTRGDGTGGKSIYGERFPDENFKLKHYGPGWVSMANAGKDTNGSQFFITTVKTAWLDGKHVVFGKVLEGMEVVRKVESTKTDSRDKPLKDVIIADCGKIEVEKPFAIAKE

## O=C1/C=C/C(=O)N2CCC[C@](Cc3ccccc3)(C2)C(=O)N[C@@H](Cc2ccco2)C(=O)NCc2ccccc2CC(=O)N[C@H](C(=O)NCCCOCCOCCOCCCNC(=O)c2ccc3c(c2)C(=O)OC32c3ccc(O)cc3Oc3cc(O)ccc32)CCN1 [Compound A26-Fl]
Cyp40
  Kd: 170 ± 20 nM
CypD
  Kd: 17 ± 2 nM
PPIL4(Full Length)
  Kd: > 1000 nM
CypE K218A
  Kd: 70 ± 20 nM
PPWD1
  Kd: 1100 ± 600 nM
CypB
  Kd: 34 ± 5 nM
CypA
  Kd: 51 ± 0.7 nM
CypE K212A
  Kd: 130 ± 30 nM
PPIL3
  Kd: 1700 ± 600 nM
CypC
  Kd: 150 ± 30 nM
PPIL6(C-Myc/DDK)
  Kd: > 1000 nM
CypH
  Kd: 600 ± 100 nM
NKTR
  Kd: 1500 ± 400 nM
CypE
  Kd: 100 ± 30 nM
CypE K217A
  Kd: 70 ± 10 nM
PPIL1
  Kd: 230 ± 40 nM
CypG
  Kd: 170 ± 10 nM
SDCCAG-10(GST)
  Kd: > 1000 nM
PPIL2
  Kd: > 10000 nM
